Measurements published in ChEMBL document CHEMBL2434952, “Morphological changes of some pathogenic microbial strains induced by novel thiadiazole derivatives” (2013).
Values after ≈ are worked out from the molar mass of the structure shown. Active and inactive are the calls of the source. The calls are words filed in the database; no cut-off is given here.

Experiments:
Bacillus cereus [1] = assay: Antibacterial activity against Bacillus cereus assessed as growth inhibition measured after 24 to 48 hrs by agar disk diffusion method in presence of 24.4 Gy gamma-irradiation; type: functional
Bacillus cereus [2] = assay: Antibacterial activity against Bacillus cereus assessed as growth inhibition measured after 24 to 48 hrs by agar disk diffusion method in absence of 24.4 Gy gamma-irradiation; type: functional
[3] = tested on: Staphylococcus epidermidis; assay: Antibacterial activity against Staphylococcus epidermidis assessed as growth inhibition measured after 24 to 48 hrs by agar disk diffusion method in presence of 24.4 Gy gamma-irradiation; type: functional
[4] = tested on: Staphylococcus epidermidis; assay: Antibacterial activity against Staphylococcus epidermidis assessed as growth inhibition measured after 24 to 48 hrs by agar disk diffusion method in absence of 24.4 Gy gamma-irradiation; type: functional
Staphylococcus aureus [5] = assay: Antibacterial activity against Staphylococcus aureus assessed as growth inhibition measured after 24 to 48 hrs by agar disk diffusion method in presence of 24.4 Gy gamma-irradiation; type: functional
Staphylococcus aureus [6] = assay: Antibacterial activity against Staphylococcus aureus assessed as growth inhibition measured after 24 to 48 hrs by agar disk diffusion method in absence of 24.4 Gy gamma-irradiation; type: functional
Bacillus cereus [7] = assay: Antibacterial activity against Bacillus cereus assessed as growth inhibition measured after 24 to 48 hrs by agar disk diffusion method; type: functional
[8] = tested on: Staphylococcus epidermidis; assay: Antibacterial activity against Staphylococcus epidermidis assessed as growth inhibition measured after 24 to 48 hrs by agar disk diffusion method; type: functional
Staphylococcus aureus [9] = assay: Antibacterial activity against Staphylococcus aureus assessed as growth inhibition measured after 24 to 48 hrs by agar disk diffusion method; type: functional
Klebsiella pneumoniae [10] = assay: Antibacterial activity against Klebsiella pneumoniae assessed as growth inhibition measured after 24 to 48 hrs by agar disk diffusion method; type: functional, organism-based
Pseudomonas aeruginosa [11] = assay: Antibacterial activity against Pseudomonas aeruginosa assessed as growth inhibition measured after 24 to 48 hrs by agar disk diffusion method; type: functional, organism-based
Candida albicans [12] = assay: Antifungal activity against Candida albicans assessed as growth inhibition measured after 24 to 48 hrs by agar disk diffusion method; type: functional, organism-based
Bacillus cereus [13] = assay: Antibacterial activity against Bacillus cereus assessed as growth inhibition at 30 ug/disk measured after 24 to 48 hrs by agar disk diffusion method in presence of 24.4 Gy gamma-irradiation; type: functional; conditions: light or radiation study, read-out: IZ
Bacillus cereus [14] = assay: Antibacterial activity against Bacillus cereus assessed as growth inhibition at 30 ug/disk measured after 24 to 48 hrs by agar disk diffusion method in absence of 24.4 Gy gamma-irradiation; type: functional; conditions: light or radiation study, read-out: IZ
[15] = tested on: Staphylococcus epidermidis; assay: Antibacterial activity against Staphylococcus epidermidis assessed as growth inhibition at 30 ug/disk measured after 24 to 48 hrs by agar disk diffusion method in presence of 24.4 Gy gamma-irradiation; type: functional; conditions: light or radiation study, read-out: IZ
[16] = tested on: Staphylococcus epidermidis; assay: Antibacterial activity against Staphylococcus epidermidis assessed as growth inhibition at 30 ug/disk measured after 24 to 48 hrs by agar disk diffusion method in absence of 24.4 Gy gamma-irradiation; type: functional; conditions: light or radiation study, read-out: IZ
Staphylococcus aureus [17] = assay: Antibacterial activity against Staphylococcus aureus assessed as growth inhibition at 30 ug/disk measured after 24 to 48 hrs by agar disk diffusion method in presence of 24.4 Gy gamma-irradiation; type: functional; conditions: light or radiation study, read-out: IZ
Staphylococcus aureus [18] = assay: Antibacterial activity against Staphylococcus aureus assessed as growth inhibition at 30 ug/disk measured after 24 to 48 hrs by agar disk diffusion method in absence of 24.4 Gy gamma-irradiation; type: functional; conditions: light or radiation study, read-out: IZ
Bacillus cereus [19] = assay: Antibacterial activity against Bacillus cereus assessed as growth inhibition at 30 ug/disk measured after 24 to 48 hrs by agar disk diffusion method; type: functional; conditions: read-out: IZ
[20] = tested on: Staphylococcus epidermidis; assay: Antibacterial activity against Staphylococcus epidermidis assessed as growth inhibition at 30 ug/disk measured after 24 to 48 hrs by agar disk diffusion method; type: functional; conditions: read-out: IZ
Staphylococcus aureus [21] = assay: Antibacterial activity against Staphylococcus aureus assessed as growth inhibition at 30 ug/disk measured after 24 to 48 hrs by agar disk diffusion method; type: functional; conditions: read-out: IZ
Klebsiella pneumoniae [22] = assay: Antibacterial activity against Klebsiella pneumoniae assessed as growth inhibition at 30 ug/disk measured after 24 to 48 hrs by agar disk diffusion method; type: functional; conditions: read-out: IZ
Pseudomonas aeruginosa [23] = assay: Antibacterial activity against Pseudomonas aeruginosa assessed as growth inhibition at 30 ug/disk measured after 24 to 48 hrs by agar disk diffusion method; type: functional; conditions: read-out: IZ
Bacillus cereus [24] = assay: Antibacterial activity against Bacillus cereus assessed as aggregation of cellular material at poles at MIC by scanning electron microscopic analysis; type: functional, organism-based
Bacillus cereus [25] = assay: Antibacterial activity against Bacillus cereus assessed as septum disappearance at MIC by scanning electron microscopic analysis; type: functional, organism-based
Bacillus cereus [26] = assay: Antibacterial activity against Bacillus cereus assessed as shortening of cell surface at MIC by scanning electron microscopic analysis; type: functional, organism-based
Bacillus cereus [27] = assay: Antibacterial activity against Bacillus cereus assessed as elongation of cell surface at MIC by scanning electron microscopic analysis; type: functional, organism-based
Staphylococcus aureus [28] = assay: Antibacterial activity against Staphylococcus aureus assessed as elongation of cell surface at MIC by scanning electron microscopic analysis in presence of 24.4 Gy gamma-irradiation; type: functional, organism-based
Staphylococcus aureus [29] = assay: Antibacterial activity against Staphylococcus aureus assessed as septum disappearance at MIC by scanning electron microscopic analysis; type: functional, organism-based
Staphylococcus aureus [30] = assay: Antibacterial activity against Staphylococcus aureus assessed as deformity of cell surface at MIC by scanning electron microscopic analysis in presence of 24.4 Gy gamma-irradiation; type: functional, organism-based
Bacillus cereus [31] = assay: Antibacterial activity against Bacillus cereus assessed as growth inhibition measured for 24 hrs by agar streak dilution method in absence of 24.4 Gy gamma-irradiation; type: functional; conditions: light or radiation study
Staphylococcus aureus [32] = assay: Antibacterial activity against Staphylococcus aureus assessed as growth inhibition measured for 24 hrs by agar streak dilution method in presence of 24.4 Gy gamma-irradiation; type: functional; conditions: light or radiation study
Staphylococcus aureus [33] = assay: Antibacterial activity against Staphylococcus aureus assessed as growth inhibition measured for 24 hrs by agar streak dilution method in absence of 24.4 Gy gamma-irradiation; type: functional; conditions: light or radiation study
Staphylococcus aureus [34] = assay: Antibacterial activity against Staphylococcus aureus assessed as appearance of projected cellular material and membrane blebbing at MIC by scanning electron microscopic analysis; type: functional, organism-based
Candida albicans [35] = assay: Antifungal activity against Candida albicans assessed as growth inhibition at 30 ug/disk measured after 24 to 48 hrs by agar disk diffusion method; type: functional, organism-based

| Compound | inhibition zone (IZ) (Bacillus cereus [1]) [mm] | inhibition zone (IZ) (Bacillus cereus [2]) [mm] | inhibition zone (IZ) [3] [mm] | inhibition zone (IZ) [4] [mm] | inhibition zone (IZ) (Staphylococcus aureus [5]) [mm] | inhibition zone (IZ) (Staphylococcus aureus [6]) [mm] | inhibition zone (IZ) (Bacillus cereus [7]) | inhibition zone (IZ) [8] | inhibition zone (IZ) (Staphylococcus aureus [9]) | growth inhibition (GI) (Klebsiella pneumoniae [10]) | growth inhibition (GI) (Pseudomonas aeruginosa [11]) | growth inhibition (GI) (Candida albicans [12]) | other results |
| --- | --- | --- | --- | --- | --- | --- | --- | --- | --- | --- | --- | --- | --- |
| O=C(Nc1ccccc1)Sc1nnc(N(C(=O)Nc2ccccc2)C(=O)Nc2ccccc2)s1 | 9 | 7 | 12 | 8 | 7 | 7 | 7 mm | 7 mm | 15 mm | inactive | inactive | inactive |  |
| NCC[C@H](O)C(=O)N[C@@H]1C[C@H](N)[C@@H](O[C@H]2O[C@H](CN)[C@@H](O)[C@H](O)[C@H]2O)[C@H](O)[C@H]1O[C@H]1O[C@H](CO)[C@@H](O)[C@H](N)[C@H]1O [AMIKACIN] |  |  |  |  |  |  |  |  |  |  |  |  | zone of inhibition at 30 µg/disc (Bacillus cereus [13]): 20 mm; zone of inhibition at 30 µg/disc (Bacillus cereus [14]): 20 mm; zone of inhibition at 30 µg/disc [15]: 25 mm; zone of inhibition at 30 µg/disc [16]: 24 mm; zone of inhibition at 30 µg/disc (Staphylococcus aureus [17]): 17 mm; zone of inhibition at 30 µg/disc (Staphylococcus aureus [18]): 20 mm; zone of inhibition at 30 µg/disc (Bacillus cereus [19]): 20 mm; zone of inhibition at 30 µg/disc [20]: 25 mm; zone of inhibition at 30 µg/disc (Staphylococcus aureus [21]): 20 mm; zone of inhibition at 30 µg/disc (Klebsiella pneumoniae [22]): 11 mm; zone of inhibition at 30 µg/disc (Pseudomonas aeruginosa [23]): 15 mm |
| O=C(Nc1ccccc1)Nc1nnc(S)s1 | 9 | 7 | 10 | 7 | 10 | 7 | 7 mm | 9 mm | 10 mm | inactive | inactive | inactive |  |
| S=c1[nH]nc(/N=C/c2ccccc2Cl)s1 | 16 | 20 | 13 | 13 | 16 | 16 | 22 mm | 12 mm | 20 mm | inactive | inactive | inactive |  |
| N#Cc1c(-c2ccccc2)cn(-c2n[nH]c(=S)s2)c1N | 25 | 25 | 25 | 12 | 19 | 20 | 20 mm | 17 mm | 25 mm | inactive | inactive | inactive | Activity (Bacillus cereus [24]): Active; Activity (Bacillus cereus [25]): Active; Activity (Bacillus cereus [26]): Active; Activity (Bacillus cereus [27]): Active; Activity (Staphylococcus aureus [28]): Active; Activity (Staphylococcus aureus [29]): Active; Activity (Staphylococcus aureus [30]): Active; MIC (Bacillus cereus [31]): 250 mg/L (≈ 835 µM); MIC (Staphylococcus aureus [32]): 250 mg/L; MIC (Staphylococcus aureus [33]): 125 mg/L (≈ 418 µM); Activity (Staphylococcus aureus [34]): Active |
| NYSTATIN |  |  |  |  |  |  |  |  |  |  |  |  | inhibition zone (IZ) (Candida albicans [35]): 7 mm |
| NS(=O)(=O)c1ccc(NC(=S)Nc2n[nH]c(=S)s2)cc1 | 10 | 7 | 10 | 6 | 10 | 10 | 7 mm | inactive | 9 mm | inactive | inactive | inactive |  |
| O=C(CNc1n[nH]c(=S)s1)c1ccccc1 | 15 | 15 | 20 | 12 | 20 | 20 | 18 mm | 15 mm | 20 mm | inactive | inactive | inactive |  |
| O=C(CCl)Nc1n[nH]c(=S)s1 |  |  |  |  |  |  | inactive | inactive | inactive | inactive | inactive | inactive |  |
| O=CN(C=O)c1n[nH]c(=S)s1 | 20 | 13 | 13 | 13 | 16 | 20 | 22 mm | 20 mm | 20 mm | inactive | inactive | inactive |  |
| CC(=O)N(C(C)=O)c1n[nH]c(=S)s1 | 20 | 11 | 15 | 11 | 17 | 20 | 20 mm | 13 mm | 20 mm | inactive | inactive | inactive |  |
| O=C1CSC(Nc2n[nH]c(=S)s2)=N1 | 11 | 11 | 7 | 7 | 15 | 12 | 9 mm | 7 mm | 10 mm | inactive | inactive | inactive |  |
